In ChEMBL document CHEMBL2346515, “Discovery of 4-alkylamino-7-aryl-3-cyanoquinoline LRRK2 kinase inhibitors” (Bioorg Med Chem Lett, 2013):

Tests used:
[1] = biological target: cAMP-dependent protein kinase catalytic subunit alpha (Homo sapiens) (UniProt P17612); experiment: Inhibition of PRKACA (unknown origin) at 1 uM by single point assay
[2] = biological target: Cyclin-dependent kinase 5/CDK5 activator 1 (Homo sapiens) (UniProt Q00535+Q15078); experiment: Inhibition of CDK5/p25 (unknown origin) at 1 uM by single point assay; type: protein-complex assay
[3] = biological target: T1, Serine/threonine-protein kinase 3 (Homo sapiens) (UniProt Q13188); experiment: Inhibition of STK3 (unknown origin) at 1 uM by single point assay
T1 sequence (whole entry): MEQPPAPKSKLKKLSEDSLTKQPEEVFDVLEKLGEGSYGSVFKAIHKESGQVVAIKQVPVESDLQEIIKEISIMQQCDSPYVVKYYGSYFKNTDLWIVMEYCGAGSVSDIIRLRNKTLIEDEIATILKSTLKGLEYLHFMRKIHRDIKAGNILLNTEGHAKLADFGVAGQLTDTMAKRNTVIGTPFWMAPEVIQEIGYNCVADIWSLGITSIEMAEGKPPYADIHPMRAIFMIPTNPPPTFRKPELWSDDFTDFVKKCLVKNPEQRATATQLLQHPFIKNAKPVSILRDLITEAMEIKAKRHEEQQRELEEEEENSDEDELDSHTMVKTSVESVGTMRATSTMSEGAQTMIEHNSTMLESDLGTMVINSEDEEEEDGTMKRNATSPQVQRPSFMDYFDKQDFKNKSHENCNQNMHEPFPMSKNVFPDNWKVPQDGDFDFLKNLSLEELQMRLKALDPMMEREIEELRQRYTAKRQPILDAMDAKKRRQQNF

[4] = biological target: Leucine-rich repeat serine/threonine-protein kinase 2 (Homo sapiens, UniProt Q5S007); experiment: Inhibition of LRRK2 (unknown origin) at 1 uM by single point assay
[5] = biological target: Cyclin-dependent kinase 2/cyclin A (Homo sapiens) (UniProt P24941+P20248+P78396); experiment: Inhibition of CDK2/cyclin A (unknown origin) at 1 uM by single point assay; type: protein-complex assay
[6] = biological target: Platelet-derived growth factor receptor alpha (Homo sapiens) (UniProt P16234); experiment: Inhibition of PDGFRalpha (unknown origin) at 1 uM by single point assay
[7] = biological target: Tyrosine-protein kinase SYK (Homo sapiens) (UniProt P43405); experiment: Inhibition of SYK (unknown origin) at 1 uM by single point assay
[8] = biological target: Serine/threonine-protein kinase PAK 4 (Homo sapiens) (UniProt O96013); experiment: Inhibition of PAK4 (unknown origin) at 1 uM by single point assay
[9] = biological target: Dual specificity protein kinase CLK1 (Homo sapiens) (UniProt P49759); experiment: Inhibition of CLK1 (unknown origin) at 1 uM by single point assay
[10] = biological target: T2, Dual specificity protein kinase TTK (Homo sapiens) (UniProt P33981); experiment: Inhibition of TTK (unknown origin) at 1 uM by single point assay
T2 sequence (whole entry): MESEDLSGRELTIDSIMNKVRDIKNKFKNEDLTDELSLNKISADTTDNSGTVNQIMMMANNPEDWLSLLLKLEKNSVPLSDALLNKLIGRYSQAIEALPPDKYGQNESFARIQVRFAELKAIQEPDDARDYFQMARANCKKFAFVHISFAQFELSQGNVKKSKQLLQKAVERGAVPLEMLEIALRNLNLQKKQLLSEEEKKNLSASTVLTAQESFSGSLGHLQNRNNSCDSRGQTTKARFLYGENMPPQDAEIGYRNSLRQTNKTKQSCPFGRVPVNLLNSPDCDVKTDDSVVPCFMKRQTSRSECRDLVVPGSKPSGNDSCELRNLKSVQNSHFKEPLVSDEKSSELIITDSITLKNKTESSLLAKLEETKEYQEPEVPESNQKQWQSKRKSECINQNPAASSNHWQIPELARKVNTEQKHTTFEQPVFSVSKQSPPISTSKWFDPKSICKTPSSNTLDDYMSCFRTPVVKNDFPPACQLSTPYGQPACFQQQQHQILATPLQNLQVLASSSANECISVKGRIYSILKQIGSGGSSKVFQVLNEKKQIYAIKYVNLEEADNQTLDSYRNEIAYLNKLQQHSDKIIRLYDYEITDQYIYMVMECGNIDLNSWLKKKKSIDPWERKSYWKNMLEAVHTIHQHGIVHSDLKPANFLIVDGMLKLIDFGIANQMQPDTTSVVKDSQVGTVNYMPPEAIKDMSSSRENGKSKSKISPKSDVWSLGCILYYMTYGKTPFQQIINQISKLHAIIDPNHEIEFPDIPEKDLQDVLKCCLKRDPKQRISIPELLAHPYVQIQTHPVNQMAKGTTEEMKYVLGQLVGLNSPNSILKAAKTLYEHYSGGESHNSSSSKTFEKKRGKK

[11] = biological target: Macrophage colony-stimulating factor 1 receptor (Homo sapiens) (UniProt P07333); experiment: Inhibition of CSF1R (unknown origin) at 1 uM by single point assay
Macrophage colony-stimulating factor 1 receptor (Homo sapiens), sequence (P07333 whole entry): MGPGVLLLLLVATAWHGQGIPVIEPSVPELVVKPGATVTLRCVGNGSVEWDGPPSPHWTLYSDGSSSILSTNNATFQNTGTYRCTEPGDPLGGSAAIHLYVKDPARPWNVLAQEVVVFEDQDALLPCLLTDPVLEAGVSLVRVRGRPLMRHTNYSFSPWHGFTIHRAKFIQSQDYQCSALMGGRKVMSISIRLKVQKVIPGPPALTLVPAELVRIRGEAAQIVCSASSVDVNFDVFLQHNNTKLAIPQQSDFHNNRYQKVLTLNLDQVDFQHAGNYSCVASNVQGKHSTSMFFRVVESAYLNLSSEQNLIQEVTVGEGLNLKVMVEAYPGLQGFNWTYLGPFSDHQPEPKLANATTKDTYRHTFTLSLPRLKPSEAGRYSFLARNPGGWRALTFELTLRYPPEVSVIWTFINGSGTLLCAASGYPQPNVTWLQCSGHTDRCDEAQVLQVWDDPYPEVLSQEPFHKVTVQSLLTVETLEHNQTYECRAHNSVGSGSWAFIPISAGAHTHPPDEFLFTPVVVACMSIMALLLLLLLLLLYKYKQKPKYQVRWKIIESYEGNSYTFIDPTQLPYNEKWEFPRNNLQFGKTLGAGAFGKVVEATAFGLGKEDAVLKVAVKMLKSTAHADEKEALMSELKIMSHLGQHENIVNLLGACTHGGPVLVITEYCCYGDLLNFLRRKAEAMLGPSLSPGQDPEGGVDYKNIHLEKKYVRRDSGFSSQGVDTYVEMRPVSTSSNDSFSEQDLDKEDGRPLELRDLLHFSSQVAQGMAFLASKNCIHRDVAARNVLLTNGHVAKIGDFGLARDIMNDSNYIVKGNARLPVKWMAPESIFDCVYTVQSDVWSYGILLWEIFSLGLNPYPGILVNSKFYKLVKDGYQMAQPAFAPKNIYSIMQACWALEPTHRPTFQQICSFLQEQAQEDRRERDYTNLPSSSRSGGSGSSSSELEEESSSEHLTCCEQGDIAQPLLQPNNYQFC

[12] = biological target: Serine/threonine-protein kinase MARK2 (Homo sapiens) (UniProt Q7KZI7); experiment: Inhibition of MARK2 (unknown origin) at 1 uM by single point assay
[13] = biological target: Receptor tyrosine-protein kinase erbB-4 (Homo sapiens) (UniProt Q15303); experiment: Inhibition of ErbB4 (unknown origin) at 1 uM by single point assay
Receptor tyrosine-protein kinase erbB-4 (Homo sapiens), sequence (Q15303 whole entry): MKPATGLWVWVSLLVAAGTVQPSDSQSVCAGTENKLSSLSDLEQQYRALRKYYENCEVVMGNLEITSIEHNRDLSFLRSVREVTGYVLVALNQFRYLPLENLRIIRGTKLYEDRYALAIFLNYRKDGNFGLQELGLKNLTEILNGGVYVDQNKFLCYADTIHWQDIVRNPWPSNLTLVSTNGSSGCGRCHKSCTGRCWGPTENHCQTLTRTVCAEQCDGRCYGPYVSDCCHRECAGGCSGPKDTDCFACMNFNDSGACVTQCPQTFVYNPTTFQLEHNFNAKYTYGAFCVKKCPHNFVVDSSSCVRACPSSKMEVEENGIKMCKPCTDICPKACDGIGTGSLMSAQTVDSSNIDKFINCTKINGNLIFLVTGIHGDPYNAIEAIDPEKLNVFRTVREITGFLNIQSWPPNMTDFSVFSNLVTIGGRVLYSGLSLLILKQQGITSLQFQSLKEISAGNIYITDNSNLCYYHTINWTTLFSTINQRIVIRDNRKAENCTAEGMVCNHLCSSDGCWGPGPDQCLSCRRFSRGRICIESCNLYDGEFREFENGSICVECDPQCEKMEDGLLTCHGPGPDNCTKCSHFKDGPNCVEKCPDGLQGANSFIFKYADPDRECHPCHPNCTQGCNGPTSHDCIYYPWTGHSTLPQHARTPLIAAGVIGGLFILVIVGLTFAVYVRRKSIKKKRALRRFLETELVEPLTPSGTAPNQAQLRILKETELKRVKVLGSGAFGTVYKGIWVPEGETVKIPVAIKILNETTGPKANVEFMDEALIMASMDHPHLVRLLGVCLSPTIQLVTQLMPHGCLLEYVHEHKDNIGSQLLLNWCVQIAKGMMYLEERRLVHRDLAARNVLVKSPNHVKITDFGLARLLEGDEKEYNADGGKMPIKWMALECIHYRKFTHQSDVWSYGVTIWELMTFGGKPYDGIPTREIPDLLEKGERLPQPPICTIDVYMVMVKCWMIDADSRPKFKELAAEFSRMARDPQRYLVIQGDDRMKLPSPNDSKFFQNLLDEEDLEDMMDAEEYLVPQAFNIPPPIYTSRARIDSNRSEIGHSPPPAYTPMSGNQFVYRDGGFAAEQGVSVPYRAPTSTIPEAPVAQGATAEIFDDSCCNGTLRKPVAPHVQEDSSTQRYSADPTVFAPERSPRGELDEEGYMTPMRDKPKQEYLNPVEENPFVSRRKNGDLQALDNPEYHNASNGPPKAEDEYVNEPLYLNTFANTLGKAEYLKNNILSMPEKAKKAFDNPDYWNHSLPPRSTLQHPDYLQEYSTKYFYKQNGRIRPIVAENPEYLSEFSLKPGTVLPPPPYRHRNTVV

[14] = biological target: PI3-kinase p110-alpha/p85-alpha (Homo sapiens) (UniProt P27986+P42336); experiment: Inhibition of PIK3CA/PIK3R1 (unknown origin) at 1 uM by single point assay; type: protein-complex assay
[15] = biological target: Protein kinase C beta type (Homo sapiens) (UniProt P05771); experiment: Inhibition of PKCbeta1 (unknown origin) at 1 uM by single point assay
[16] = biological target: Calcium/calmodulin-dependent protein kinase type II subunit alpha (Homo sapiens) (UniProt Q9UQM7); experiment: Inhibition of CAMK2alpha (unknown origin) at 1 uM by single point assay
[17] = biological target: Tyrosine-protein kinase JAK1 (Homo sapiens) (UniProt P23458); experiment: Inhibition of JAK1 (unknown origin) at 1 uM by single point assay
[18] = biological target: Rho-associated protein kinase 2 (Homo sapiens) (UniProt O75116); experiment: Inhibition of ROCK2 (unknown origin) at 1 uM by single point assay
Rho-associated protein kinase 2 (Homo sapiens), sequence (O75116 whole entry, looked up): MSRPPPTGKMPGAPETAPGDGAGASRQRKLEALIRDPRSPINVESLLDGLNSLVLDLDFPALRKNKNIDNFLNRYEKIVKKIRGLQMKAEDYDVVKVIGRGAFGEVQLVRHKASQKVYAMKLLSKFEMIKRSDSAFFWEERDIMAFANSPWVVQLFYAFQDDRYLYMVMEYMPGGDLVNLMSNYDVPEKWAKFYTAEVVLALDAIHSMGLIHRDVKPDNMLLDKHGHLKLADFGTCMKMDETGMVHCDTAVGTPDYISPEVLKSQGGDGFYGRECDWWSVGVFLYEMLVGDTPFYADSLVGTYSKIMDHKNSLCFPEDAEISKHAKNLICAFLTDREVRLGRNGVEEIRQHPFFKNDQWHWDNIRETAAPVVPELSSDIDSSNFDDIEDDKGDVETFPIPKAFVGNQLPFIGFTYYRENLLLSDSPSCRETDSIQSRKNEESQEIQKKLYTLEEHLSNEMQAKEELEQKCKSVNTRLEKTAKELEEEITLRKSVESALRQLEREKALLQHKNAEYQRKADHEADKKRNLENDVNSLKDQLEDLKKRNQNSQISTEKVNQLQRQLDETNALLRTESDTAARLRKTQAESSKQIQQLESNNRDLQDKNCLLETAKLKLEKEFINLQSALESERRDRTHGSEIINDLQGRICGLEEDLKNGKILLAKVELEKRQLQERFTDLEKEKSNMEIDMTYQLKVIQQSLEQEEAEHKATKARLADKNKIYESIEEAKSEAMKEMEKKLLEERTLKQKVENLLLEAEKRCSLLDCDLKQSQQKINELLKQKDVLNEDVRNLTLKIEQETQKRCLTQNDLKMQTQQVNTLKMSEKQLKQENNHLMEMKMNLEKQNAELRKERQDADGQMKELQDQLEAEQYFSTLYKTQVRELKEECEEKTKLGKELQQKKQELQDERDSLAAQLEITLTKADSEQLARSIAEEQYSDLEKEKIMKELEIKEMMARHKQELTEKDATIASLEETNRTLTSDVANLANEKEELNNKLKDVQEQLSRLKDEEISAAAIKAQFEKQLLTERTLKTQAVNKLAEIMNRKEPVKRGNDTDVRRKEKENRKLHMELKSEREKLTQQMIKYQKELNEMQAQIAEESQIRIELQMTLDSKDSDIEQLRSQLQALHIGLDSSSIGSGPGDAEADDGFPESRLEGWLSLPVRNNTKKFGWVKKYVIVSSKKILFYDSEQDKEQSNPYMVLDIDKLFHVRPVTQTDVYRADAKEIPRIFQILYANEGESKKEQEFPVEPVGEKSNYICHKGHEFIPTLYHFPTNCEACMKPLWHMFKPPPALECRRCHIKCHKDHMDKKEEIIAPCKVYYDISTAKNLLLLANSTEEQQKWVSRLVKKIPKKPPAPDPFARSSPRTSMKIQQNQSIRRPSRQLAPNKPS

[19] = biological target: Insulin receptor (Homo sapiens) (UniProt P06213); experiment: Inhibition of INSR (unknown origin) at 1 uM by single point assay
[20] = biological target: Tyrosine-protein kinase ABL1 (Homo sapiens) (UniProt P00519); experiment: Inhibition of ABL1 (unknown origin) at 1 uM by single point assay
[21] = biological target: Receptor-type tyrosine-protein kinase FLT3 (Homo sapiens) (UniProt P36888); experiment: Inhibition of FLT3 (unknown origin) at 1 uM by single point assay
Receptor-type tyrosine-protein kinase FLT3 (Homo sapiens), sequence (P36888 whole entry): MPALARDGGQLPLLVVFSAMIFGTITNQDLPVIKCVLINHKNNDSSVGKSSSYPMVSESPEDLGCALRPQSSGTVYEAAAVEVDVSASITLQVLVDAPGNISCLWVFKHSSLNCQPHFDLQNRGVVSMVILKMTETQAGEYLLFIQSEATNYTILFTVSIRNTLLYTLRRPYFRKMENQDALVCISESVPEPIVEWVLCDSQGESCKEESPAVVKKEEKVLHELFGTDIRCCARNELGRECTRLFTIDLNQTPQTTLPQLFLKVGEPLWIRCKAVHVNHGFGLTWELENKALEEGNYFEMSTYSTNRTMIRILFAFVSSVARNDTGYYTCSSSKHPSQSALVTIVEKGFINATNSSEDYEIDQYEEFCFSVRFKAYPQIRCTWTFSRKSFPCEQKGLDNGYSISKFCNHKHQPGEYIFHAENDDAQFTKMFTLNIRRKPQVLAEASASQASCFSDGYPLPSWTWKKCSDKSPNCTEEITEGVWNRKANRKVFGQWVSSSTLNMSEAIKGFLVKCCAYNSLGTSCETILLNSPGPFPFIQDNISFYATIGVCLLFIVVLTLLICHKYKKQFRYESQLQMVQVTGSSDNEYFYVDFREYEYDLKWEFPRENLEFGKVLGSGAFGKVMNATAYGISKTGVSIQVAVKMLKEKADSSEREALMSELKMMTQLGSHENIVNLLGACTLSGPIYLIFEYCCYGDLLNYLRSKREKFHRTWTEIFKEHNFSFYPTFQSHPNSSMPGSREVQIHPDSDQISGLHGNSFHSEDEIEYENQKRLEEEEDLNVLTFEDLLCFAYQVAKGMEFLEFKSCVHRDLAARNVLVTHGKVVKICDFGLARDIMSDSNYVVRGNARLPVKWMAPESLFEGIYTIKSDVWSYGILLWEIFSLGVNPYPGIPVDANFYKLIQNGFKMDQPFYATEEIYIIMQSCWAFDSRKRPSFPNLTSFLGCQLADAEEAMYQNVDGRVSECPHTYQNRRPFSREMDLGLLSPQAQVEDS

[22] = biological target: Glycogen synthase kinase-3 beta (Homo sapiens) (UniProt P49841); experiment: Inhibition of GSK3beta (unknown origin) at 1 uM by single point assay
Glycogen synthase kinase-3 beta (Homo sapiens), sequence (P49841 whole entry, looked up): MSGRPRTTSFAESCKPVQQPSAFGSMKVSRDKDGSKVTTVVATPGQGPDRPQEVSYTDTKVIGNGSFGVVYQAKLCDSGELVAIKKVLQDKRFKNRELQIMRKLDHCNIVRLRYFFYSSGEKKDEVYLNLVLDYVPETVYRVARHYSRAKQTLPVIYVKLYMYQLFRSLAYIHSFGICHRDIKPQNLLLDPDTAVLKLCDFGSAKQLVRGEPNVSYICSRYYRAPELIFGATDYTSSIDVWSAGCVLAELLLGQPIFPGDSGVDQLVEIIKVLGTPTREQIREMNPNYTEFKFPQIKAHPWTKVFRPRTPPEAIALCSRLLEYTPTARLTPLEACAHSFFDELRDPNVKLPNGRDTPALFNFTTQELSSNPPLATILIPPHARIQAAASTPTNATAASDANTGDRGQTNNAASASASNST

[23] = biological target: Serine/threonine-protein kinase PLK3 (Homo sapiens) (UniProt Q9H4B4); experiment: Inhibition of PLK3 (unknown origin) at 1 uM by single point assay

inhibition [1] [%]	inhibition [2] [%]	inhibition [3] [%]	inhibition [4] [%]	inhibition [5] [%]	inhibition [6] [%]	inhibition [7] [%]	inhibition [8] [%]	inhibition [9] [%]	inhibition [10] [%]	inhibition [11] [%]	inhibition [12] [%]	inhibition [13] [%]	inhibition [14] [%]	inhibition [15] [%]	inhibition [16] [%]	inhibition [17] [%]	inhibition [18] [%]	inhibition [19] [%]	inhibition [20] [%]	Compound	other results
9	16	29	82	12	33	80	15	32	-4	60	52	19	-2	19	25	16	12	6	39	CC(C)Nc1c(C#N)cnc2cc(-c3ccc(S(C)(=O)=O)cc3)ccc12	inhibition [21]: 16%; inhibition [22]: 28%; inhibition [23]: 13%
9	12	15	96	5	30	92	41	27	-9	67	64	5	22	-7	27	3	14	1	55	CC(C)Nc1c(C#N)cnc2cc(-c3cnn(C)c3)ccc12	inhibition [21]: 84%; inhibition [22]: 6%; inhibition [23]: 12%
